Assay results: patent US5252482A, “Precursor of a C-terminal amidated calcitonin” (Suntory Limited, priority 1982, dated 1993)
Bridge positions count the residues as written; N and C are the ends. Peptide text beside a SMILES is read from it.

Test system: Male Wistar strain rats
Assay: serum calcium lowering effect in rats
Assay type: in vivo, rat
Details: for Change in serum Ca level: 4.5 μg/rat subcutaneously, mean of 4 rats
Procedure: The biological activities of HPCT and HPCT Cp(1-3S purified by the above-mentioned procedure were assayed using the serum calcium lowering effect in rats as an indicator.
Male Wistar strain rats weighing 300 to 350 grams were fasted overnight and used. Each animal was secured in supine position and under ether anesthesia, a polyethylene tube (Intramedic® PE-50, Clay Adams) filled with heparin sodium injection J. P. (Japan-Upjohn) was inserted into the femoral artery of the right hind leg. The rat was fixed in a Boleman cage, and 30 minutes after awakening of the animal, 0.5 ml of the blood was withdrawn through the above polyethylene tube inserted into the femoral artery into a polyethylene centrifugal tube containing 50 units of heparin sodium. Immediately thereafter 0.2 ml of the under-mentioned physiological saline, HPCT. HPCT.Cp(1-33) or swine calcitonin solution was administered subcutaneously at the back of the animal. Then, 1, 2, 4 and 6 hours after the administration, 0.5 ml each of the blood was taken through the above-mentioned polyethylene tube. The blood thus taken was promptly centrifuged on an Eppendorf microcentrifuge (Eppendorf 5414) at 13,000 r.p.m. for 1 minute and the supernatant was used as serum fraction.
The blood calcium level was measured by the o-cresolphthalein complexon method using a commercial calcium assay kit RM117-K (Ca SET) (Yatron). Fifty μl of the serum was taken in a test tube and stirred with 0.5 ml of the color reagent containing o-cresolphthalein complexon and 8-hydroxyquinoline (RM117-2). Then, 5.0 ml of monoethanolamine borate buffer (RM117-1) was added and stirred. Within 90 minutes thereafter, the absorbance was measured with a self-recording spectrophotometer (Hitachi 320) at the wavelength of 575 mu. The concentration of calcium was calculated from this absorbance value.
The methods used in the preparation of the physiological saline solution, HPCT solution, HPCT. Cp(1-3S) solution and swine calcitonin solution employed are as follows.
a) Physiological saline solution: Bovine serum albumin (Sigma®) was dissolved in physiological saline J. P. (Ohtsuka Pharmaceutical Co.) at room temperature to the albumin concentration of 0.1%.
b) HPCT solution: HPCT was diluted with the above-mentioned physiological saline solution containing 0.1% of albumin to the HPCT concentration of 4.5 μg/0.2 ml.
c) HPCT Cp(1-33) solution: HPCT Cp(1-33) was diluted with the above-mentioned physiological saline solution containing 0.1% of albumine to the HPCT Cp(1-33) concentration of 20 μg/0.2 ml.
d) Swine calcitonin solution: Calcital® for Injection (Yamanouchi Pharmaceutical Co.) containing 160 I.U. of calcitonin per vial was dissolved in 40 ml of a vehicle containing 16% of purified gelatin and 0.5% phenol J. P. and the solution was diluted with the above-mentioned physiological saline solution containing 0.1% of albumin. This dilution contained 0.2 or 1 I.U. of swine calcitonin per 0.2 ml.

CC[C@H](C)[C@H](NC(=O)[C@H](C)NC(=O)[C@@H](NC(=O)[C@H](CCC(N)=O)NC(=O)[C@@H]1CCCN1C(=O)[C@H](Cc1ccccc1)NC(=O)[C@@H](NC(=O)[C@H](Cc1c[nH]cn1)NC(=O)[C@H](Cc1ccccc1)NC(=O)[C@H](CCCCN)NC(=O)[C@H](CC(N)=O)NC(=O)[C@H](Cc1ccccc1)NC(=O)[C@H](CC(=O)O)NC(=O)[C@H](CCC(N)=O)NC(=O)[C@@H](NC(=O)[C@H](Cc1ccc(O)cc1)NC(=O)[C@@H](NC(=O)CNC(=O)[C@H](CC(C)C)NC(=O)[C@@H](NC(=O)[C@@H]1CSSC[C@H](N)C(=O)NCC(=O)N[C@@H](CC(N)=O)C(=O)N[C@@H](CC(C)C)C(=O)N[C@@H](CO)C(=O)N[C@@H]([C@@H](C)O)C(=O)N1)C(C)C)[C@@H](C)O)[C@@H](C)O)[C@@H](C)O)[C@@H](C)O)C(=O)NCC(=O)N[C@H](C(=O)NCC(=O)N[C@@H](C)C(=O)N1CCC[C@H]1C(=O)NCC(=O)N[C@@H](CCCCN)C(=O)N[C@@H](CCCCN)C(=O)N[C@@H](CCCNC(=N)N)C(=O)O)C(C)C [HPCT] (H-CGNLSTCVLGTYTQDFNKFHTFPQTAIGVGAPGKKR-OH; disulfide 1-7)
activity equivalent in swine calcitonin (4.5 μg of HPCT, rat, subcutaneous, serum calcium time course): 0.2 I.U.
calcitonin activity (calcium level in the rat blood): markedly reducing the calcium level in the rat blood
physiological activity compared with swine calcitonin (rat serum calcium, Table 2, not compared in an equal amount): stronger physiological activity as compared with swine calcitonin
serum calcium level (rat, 4.5 μg subcutaneously, 1 and 2 hours after the administration): dropped with statistical significance
Change in serum Ca level (rat, 1 hour after administration): -0.85 mg/dL
Change in serum Ca level (rat, 2 hours): -0.64 mg/dL
Change in serum Ca level (rat, 3 hours): -0.47 mg/dL
Change in serum Ca level (rat, 4 hours): -0.63 mg/dL
